In patent publication EP1680415B1, “PYRROLIDINYL UREA DERIVATIVES AS ANGIOGENESIS INHIBITORS” (ABBOTT LABORATORIES, priority 2003, dated 2005):

System: HMVEC
Assay: human microvascular endothelial (HMVEC) migration assay
Assay type: cell-based
Details: Inhibition of HMVEC migration, activators 15 ng/mL bFGF/VEGF, 4 hours at 37 °C, compared to a positive control; for inhibition at 0.001 µM: 1 nM; for inhibition at 0.0001 µM / % Inhibition @ 0.1 nM: 0.1 nM
Protocol: The human microvascular endothelial (HMVEC) migration assay was run according to the procedure of S. S. Tolsma, O. V. Volpert, D. J. Good, W. F. Frazier, P. J. Polverini and N. Bouck, J. Cell Biol. 122, 497-511 (1993).
The HMVEC migration assay was carried out using Human Microvascular Endothelial Cells-Dermal (single donor) and Human Microvascular Endothelial Cells, (neonatal). The BCE or HMVEC cells were starved overnight in DME containing 0.01% bovine serum albumin (BSA). Cells were then harvested with trypsin and resuspended in DME with 0.01 % BSA at a concentration of 1.5 X 10^6 cells per mL. Cells were added to the bottom of a 48 well modified Boyden chamber (Nucleopore Corporation, Cabin John, MD). The chamber was assembled and inverted, and cells were allowed to attach for 2 hours at 37 °C to polycarbonate chemotaxis membranes (5 µm pore size) that had been soaked in 0.01 % gelatin overnight and dried. The chamber was then reinverted, and test substances (total volume of 50 µL), including activators, 15 ng/mL bFGF/VEGF, were added to the wells of the upper chamber. The apparatus was incubated for 4 hours at 37 °C. Membranes were recovered, fixed and stained (Diff Quick, Fisher Scientific) and the number of cells that had migrated to the upper chamber per 3 high power fields counted. Background migration to DME + […] was subtracted and the data reported as the number of cells migrated per 10 high power fields (400X) or, when results from multiple experiments were combined, as the percent inhibition of migration compared to a positive control.

Row | Compound | inhibition at 0.0001 µM (Homo sapiens) [%] | other results
1 | Cc1ccc(C(=O)N2CC[C@@H](NC(=O)N3CCC(n4c(=O)[nH]c5ccccc54)CC3)C2)c(Cl)n1 [Example 47, N-{(3R)-1-[(2-chloro-6-methylpyridin-3-yl)carbonyl]pyrrolidin-3-yl}-4-(2-oxo-2,3-dihydro-1H-benzimidazol-1-yl)piperidine-1-carboxanude] | – | inhibition at 0.001 µM (Homo sapiens): 80%
2 | COc1ccc(CCN(C)C(=O)N[C@@H]2CCN(C(=O)c3ccc(C)nc3Cl)C2)cc1OC [Example 45, N'-{(3R)-1-[(2-chloro-6-methylpyridin-3-yl)carbonyl]pyrrolidin-3-yl}-N-[2-(3,4-dimethoxyphenyl)ethyl]-N-methylurea] | 82 | –
3 | Cc1ccc(C(=O)N2CC[C@@H](NC(=O)N[C@@H](C)c3ccccc3)C2)cn1 [Example 33, N-((3R)-1-[(6-methylpyridin-3-yl)carbonyl]pyrrolidin-3-yl)-N'-[(1S)-1-phenylethyl]urea] | 85 | –
4 | Cc1ccc(C(=O)N2CC[C@@H](NC(=O)N3CCCC3)C2)cn1 [Example 2, N-{(3R)-1-[(6-methyl-3-pyridinyl)carbonyl]-3-pyrrolidinyl}-1-pyrrolidinecarboxamide] | 98 | –
5 | Cc1ccc(C(=O)N2CC[C@@H](NC(=O)N[C@@H](CO)c3ccccc3)C2)cn1 [Example 32, N-[(1R)-2-hydroxy-1-phenylethyl]-N'-{(3R)-1-[(6-methyl-3-pyridinyl)carbonyl]-3-pyrrolidinyl} urea] | 85 | –
6 | Cc1ccc(C(=O)N2CC[C@@H](NC(=O)N[C@H](CO)CC(C)C)C2)cn1 [Example 23, N-[(1S)-1-(hydroxymethyl)-3-methylbutyl]-N'-{(3R)-1-[(6-methyl-3-pyridinyl)carbonyl]-3-pyrrolidinyl}urea] | 93 | –
7 | Cc1ccc(C(=O)N2CC[C@@H](NC(=O)NCCCOC(C)C)C2)cn1 [Example 26, N-(3-isopropoxypropyl)-N'-{(3R)-1-[(6-methyl-3-pyridinyl)carbonyl]-3-pyrrolidinyl}urea] | 75 | –
8 | Cc1ccc(C(=O)N2CC[C@@H](NC(=O)NCc3ccccc3)C2)cn1 [Example 1, N-benzyl-N'-{(3R)-1-[(6-methylpyridin-3-yl)carbonyl]pyrrolidin-3-yl}urea] | 80 | –
9 | CCOC(=O)CN1CCN(C(=O)N[C@@H]2CCN(C(=O)c3ccc(C)nc3)C2)CC1 [Example 95, ethyl {4-[({(3R)-1-[(6-methylpyridin-3-yl)carbonyl]pyrrolidin-3-yl}amino)carbonyl]piperazin-1-yl} acetate] | – | inhibition at 10 pM (Homo sapiens, 0.01 nM): 62%
10 | CCN(Cc1ccccc1)C(=O)N[C@@H]1CCN(C(=O)c2ccc(C)nc2)C1 [Example 50, N-benzyl-N-ethyl-N'-{(3R)-1-[(6-methylpyridin-3-yl)carbonyl]pyrrolidin-3-yl} urea] | 76 | –
11 | CCOCCCNC(=O)N[C@@H]1CCN(C(=O)c2ccc(C)nc2Cl)C1 [Example 38, N-{(3R)-1-[(2-chloro-6-methylpyridin-3-yl)carbonyl]pyrrolidin-3-yl}-N'-(3-ethoxypropyl)urea] | 99 | –
12 | COc1ccc2[nH]cc(CCNC(=O)N[C@@H]3CCN(C(=O)c4ccc(C)nc4)C3)c2c1 [Example 29, N-[2-(5-methoxy-1H-indol-3-yl)ethyl]-N'-{(3R)-1-[(6-methyl-3-pyridinyl)carbonyl]-3-pyrrolidinyl}urea] | 92 | –
13 | Cc1ccc(C(=O)N2CC[C@@H](NC(=O)NCCCOCC(C)C)C2)c(Cl)n1 [Example 40, N-{(3R)-1-[(2-chloro-6-methylpyridin-3-yl)carbonyl]pyrrolidin-3-yl}-N'-(3-isobutoxypropyl)urea] | 72 | –
14 | CSCCCNC(=O)N[C@@H]1CCN(C(=O)c2ccc(C)nc2Cl)C1 [Example 41, N-{(3R)-1-[(2-chloro-6-methylpyridin-3-yl)carbonyl]pyrrolidin-3-yl}-N'-[3-(methylthio)propyl]urea] | 87 | –
15 | Cc1ccc(C(=O)N2CC[C@@H](NC(=O)N(CCO)Cc3ccccc3)C2)cn1 [Example 82, N-benzyl-N-(2-hydroxyethyl)-N'-{(3R)-1-[(6-methylpyridin-3-yl)carbonyl]pyrrolidin-3-yl}urea] | 57 | –
16 | CCCC1CCN(C(=O)N[C@@H]2CCN(C(=O)c3ccc(C)nc3)C2)CC1 [Example 69, N-{(3R)-1-[(6-methylpyridin-3-yl)carbonyl]pyrrolidin-3-yl} -4-propylpiperidine-1-carboxamide] | 87 | –
17 | CCCN(CC)C(=O)N[C@@H]1CCN(C(=O)c2ccc(C)nc2)C1 [Example 63, N-ethyl-N'-{(3R)-1-[(6-methylpyridin-3-yl)carbonyl]pyrrolidin-3-yl}-N-propylurea] | 72 | –

Row | Compound | inhibition at 0.0001 µM (Homo sapiens) [%] | other results
18 | Cc1ccc(C(=O)N2CC[C@@H](NC(=O)N3CCC4(CC3)OCCO4)C2)cn1 [Example 87, N-{(3R)-1-[(6-methylpyridin-3-yl)carbonyl]pyrrolidin-3-yl}-1,4-dioxa-8-azaspiro[4.5]decane-8-carboxamide] | 55 | –
19 | CCN1CCN(C(=O)N[C@@H]2CCN(C(=O)c3ccc(C)nc3)C2)CC1 [Example 57, 4-ethyl-N-{(3R)-1-[(6-methylpyridin-3-yl)carbonyl]pyrrolidin-3-yl}piperazine-1-carboxamide] | 86 | –
20 | CCCC(C)NC(=O)N[C@@H]1CCN(C(=O)c2ccc(C)nc2)C1 (stereo partly drawn) [Example 8, N-(1-methylbutyl)-N'-{(3R)-1-[(6-methyl-3-pyridinyl)carbonyl]-3-pyrrolidinyl}urea] | 56 | –
21 | Cc1ccc(C(=O)N2CC[C@@H](NC(=O)N3CCN(Cc4ccccc4)CC3)C2)cn1 [Example 58, 4-benzyl-N-{(3R)-1-[(6-methylpyridin-3-yl)carbonyl]pyrrolidin-3-yl}piperazine-1-carboxamide] | 71 | –
22 | Cc1ccc(C(=O)N2CC[C@@H](NC(=O)N3CCCCCC3)C2)cn1 [Example 70, N-{(3R)-1-[(6-methylpyridin-3-yl)carbonyl]pyrrolidin-3-yl}azepane-1-carboxamide] | 97 | –
23 | Cc1ccc(C(=O)N2CC[C@@H](NC(=O)N(CCC#N)C3CC3)C2)cn1 [Example 67, N-(2-cyanoethyl)-N-cyclopropyl-N'-{(3R)-1-[(6-methylpyridin-3-yl)carbonyl]pyrrolidin-3-yl}urea] | 73 | –
24 | Cc1ccc(C(=O)N2CC[C@@H](NC(=O)N3CC4(C)CC3CC(C)(C)C4)C2)cn1 (stereo partly drawn) [Example 74, 1,3,3-trimethyl-N-{(3R)-1-[(6-methylpyridin-3-yl)carbonyl]pyrrolidin-3-yl}-6-azabicyclo[3.2.1]octane-6-carboxamide] | 68 | –
25 | Cc1ccc(C(=O)N2CC[C@@H](NC(=O)NCc3ccc(F)cc3F)C2)cn1 [Example 30, N-(2,4-difluorobenzyl)-N'-{(3R)-1-[(6-methyl-3-pyridinyl)carbonyl]-3-pyrrolidinyl}urea] | 64 | –
26 | CCCCN(Cc1ccccc1)C(=O)N[C@@H]1CCN(C(=O)c2ccc(C)nc2)C1 [Example 52, N-benzyl-N-butyl-N'-{(3R)-1-[(6-methylpyridin-3-yl)carbonyl]pyrrolidin-3-yl}urea] | – | inhibition at 0.001 µM (Homo sapiens): 80%
27 | Cc1ccc(C(=O)N2CC[C@@H](NC(=O)NCC#N)C2)cn1 [Example 15, N-(cyanomethyl)-N'-{(3R)-1-[(6-methyl-3-pyridinyl)carbonyl]-3-pyrrolidinyl}urea] | 64 | –
28 | CCCCN(CCCC)C(=O)N[C@@H]1CCN(C(=O)c2ccc(C)nc2Cl)C1 [Example 34, N,N-dibutyl-N'-{(3R)-1-[(2-chloro-6-methylpyridin-3-yl)carbonyl]pyrrolidin-3-yl}urea] | – | inhibition at 0.001 µM (Homo sapiens): 50%
29 | COCCN(CCOC)C(=O)N[C@@H]1CCN(C(=O)c2ccc(C)nc2)C1 [Example 73, N,N-bis(2-methoxyethyl)-N'-{(3R)-1-[(6-methylpyridin-3-yl)carbonyl]pyrrolidin-3-yl}urea] | 71 | –
30 | N-{(3R)-1-[(6-methyl-3-pyridinyl)carbonyl]-3-pyrrolidinyl}-N'-[2-(2-thienyl)ethyl]urea [Example 28] | – | % Inhibition @ 0.1 nM: 86%
31 | Cc1ccc(C(=O)N2CC[C@@H](NC(=O)NCC(F)(F)F)C2)cn1 [Example 11, N-{(3R)-1-[(6-methyl-3-pyridinyl)carbonyl]-3-pyrrolidinyl}-N'-(2,2,2-trifluoroethyl)urea] | 81 | –
32 | Cc1ccc(C(=O)N2CC[C@@H](NC(=O)NCCc3c[nH]c4ccccc34)C2)cn1 [Example 5, N-[2-(1H-indol-3-yl)ethyl]-N'-{(3R)-1-[(6-methyl-3-pyridinyl)carbonyl]-3-pyrrolidinyl}urea] | 59 | –
33 | Cc1ccc(C(=O)N2CC[C@@H](NC(=O)N[C@@H](CO)c3ccccc3)C2)c(Cl)n1 [Example 37, N-{(3R)-1-[(2-chloro-6-methylpyridin-3-yl)carbonyl]pynolidin-3-yl}-N'-[(1R)-2-hydroxy-1-phenylethyl]urea] | – | % Inhibition @ 0.1 nM: 73%
